Experiments:
Rhizoctonia solani [1] = assay: Limit concentration of soil-fungicidal effectiveness, Rhizoctonia solani, infested soil seeded with peas (Example 1); format: in vivo; settings: soil, 480 h, 20 to 23 days, 22°-25° C, read-out: Limit concentration of the fungicidal effectiveness
Procedure, shortened: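 Compound mixed homogeneously into steamed compost soil inoculated with Rhizoctonia solani mycelium, and 25 marrow pea seeds ("Miracle of Kelvedon") sown per concentration without a waiting period. Grown 20 to 23 days at 22°-25° C. Limit concentration is the lowest giving sound, necrosis-free roots and at least 90% germination relative to steamed soil.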

Pythium ultimum [2] = assay: Pythium ultimum infested compost soil, marrow peas (Example 2); format: in vivo; settings: for Weight of fresh plant: 3 weeks; for Number of sound peas after 3 wks.: of 25 grains
From the text: Steamed compost soil was inoculated with mycelium of Pythium ultimum.

Rhizoctonia solani [3] = assay: Rhizoctonia solani infested compost soil, marrow peas (Example 3); format: in vivo; settings: for Weight of fresh plant: 3 weeks; for Number of sound peas after 3 wks.: of 25 grains
From the text: Steamed compost soil was inoculated with mycelium of Rhizoctonia solani. After homogeneous mixture of the products with the infested soil, the products were present in the form of 20% powder preparations, the seeding of 25 grains of marrow peas of the variety "Miracle of Kelvedon" per concentration was effected without waiting period in clay dishes holding 1 liter of soil. The table lists the number of germinated sound peas, the weight of the fresh plant, and a root evaluation after a cultivation period of three weeks at 22°-25° C.

Pythium ultimum [4] = assay: Fungistatic and fungicidal action on Pythium ultimum with varying active ingredient percentages (Example 4); format: in vivo
From the text: Comparison of the fungistatic and fungicidal action on Pythium ultimum when using preparations with varyng active ingredient percentages on siliceous clay. Steamed compost soil was inoculated with mycelium of Pythium ultimum. After forming a homogeneous mixture of the products with the infested soil, […], the seeding of 25 grains of marrow peas of the variety "Miracle of Kelvedon" per concentration in clay dishes holding 1 liter of soil followed without a waiting period. In the table is stated the fresh number of germinated sound peas, the weight of the fresh plant, and a root evaluation after a cultivation period of three weeks at 22°-25° C.

[5] = system: Fusarium oxysporum f. callistephi; assay: Fusarium infested compost soil, Callistephus chinesis seedlings (Example 5); format: in vivo; settings: of 4 seedlings
From the text: Steamed compost soil was inoculated with a spore suspension of Fusarium oxysporum f. callistephi. After homogeneous mixture of the products with the infested soil, the products were present as 20% powder preparations, and after a waiting period of 8 days, there were set out per concentration 4 seedlings of Callistephus chinesis, master aster "Sun Ray" as host plants.

Damping-off Fungi = assay: Cotton seed disinfection, normal compost soil (Example 6); format: in vivo; settings: 100 mg active ingr. per kg of seed; 10% formulation; 15 days
Procedure: Cotton seeds disinfected with 10% formulations were seeded in normal compost soil (Damping-off Fungi), 25 grains per concentration. After a cultivation time of 15 days at 22°-25° C, the number of germinated sound cotton seedlings and their weight as fresh plants were determined.

Asperqilus niger = assay: Agar test (Example 7), Aspergillus; format: cell-based; settings: 10 ppm; 5 days at 22° C; control 100
Procedure, shortened: (§1)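 Compound mixed into sterilised 2% malt extract/1.5% agar before solidification at 10 ppm. Plates inoculated with 100 spores of each fungus; colony diameter (mm) measured after five days at 22° C.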

Botrytis cinerea = assay: Agar test (Example 7), Botrytis; format: cell-based; settings: 10 ppm; 5 days at 22° C; control 100
Procedure, shortened: as §1

[6] = system: Colletotrichum gloeosporioides; assay: Agar test (Example 7), Colletotrichum; format: cell-based; settings: 10 ppm; 5 days at 22° C; control 100
Procedure, shortened: as §1

Helminthosporium sativum = assay: Agar test (Example 7), Helminthosporium; format: cell-based; settings: 10 ppm; 5 days at 22° C; control 100
Procedure, shortened: as §1

Stemphylium ilicis = assay: Agar test (Example 7), Stemphylium; format: cell-based; settings: 10 ppm; 5 days at 22° C; control 100
Procedure, shortened: as §1

Meloidogyne incognita = assay: Nematocidal action, infested compost soil, cucumber seeds (Example 8); format: in vivo; settings: 30 days
Procedure: The products as 20% powder preparations were homogeneously admixed with a compost soil heavily infested by root gal nematodes. Without a waiting period, 20 cucumber seeds per concentration were seeded. After a cultivation time of 30 days at a temperature of 23°-25° C, the nematocidal action was evaluated by counting the root galls formed in the waterbath. The following table states the reduction of attack in percent. In the control, an average of 90 root galls per seedling had formed.

Pyrenochaeta lycopersici = assay: Control of Pyrenochaeta lycopersici, corky root disease of the tomato, open field (Example 9); format: in vivo; settings: 10% granulate
From the text: Control of Pyrenochaeta lycopersici, corky root disease of the tomato.
On a naturally invested open field area, 2-dichloromethyl-5-methylsulfonyl-1,3,4-thiadiazole was scattered as a 10% granulate formulation and hoed in 20 cm deep. […] After a reaction period of three weeks, tomato plants of the variety "Ronald-M" which were 8 weeks old were set out at a distance from each other of 50 × 70 cm. The harvest results indicated in the table are average values of 40 plants per lot and refer to harvested ripe tomatoes.

[7] = 10 mg active ingr. per liter of soil
[8] = 20 mg active ingr. per liter of soil
[9] = 30 mg active ingr. per liter of soil
[10] = 5% formulation, 6 mg active ingr. per liter of soil
[11] = 5% formulation, 10 mg active ingr. per liter of soil
[12] = 10% formulation, 6 mg active ingr. per liter of soil
[13] = 10% formulation, 10 mg active ingr. per liter of soil
[14] = 20% formulation, 6 mg active ingr. per liter of soil
[15] = 20% formulation, 10 mg active ingr. per liter of soil
[16] = 10 g active ingr. per square meter
[17] = 20 g active ingr. per square meter

## CS(=O)(=O)c1nnc(C(Cl)Cl)s1 [Compound 17, 2-dichloromethyl-5-methylsulfonyl-1,3,4-thiadiazole]
Rhizoctonia solani [1]
  minimal effective concentration: 20 µg/mL
Pythium ultimum [2]; [7]
  Weight of fresh plant: 24 g
  Number of sound peas after 3 wks.: 23
Pythium ultimum [2]; [8]
  Weight of fresh plant: 22 g
  Number of sound peas after 3 wks.: 24
Pythium ultimum [2]; [9]
  Weight of fresh plant: 26 g
  Number of sound peas after 3 wks.: 24
Rhizoctonia solani [3]; [7]
  Weight of fresh plant: 0 g
  Number of sound peas after 3 wks.: 0
Rhizoctonia solani [3]; [8]
  Weight of fresh plant: 14 g
  Number of sound peas after 3 wks.: 23
Rhizoctonia solani [3]; [9]
  Weight of fresh plant: 14 g
  Number of sound peas after 3 wks.: 22
Pythium ultimum [4]; [10]
  Number of sound peas after 3 weeks: 12
  Root evaluation (1-4): 1
  Weight of fresh plant: 9 g
Pythium ultimum [4]; [11]
  Number of sound peas after 3 weeks: 24
  Root evaluation (1-4): 4
  Weight of fresh plant: 20 g
Pythium ultimum [4]; [12]
  Number of sound peas after 3 weeks: 24
  Root evaluation (1-4): 1
  Weight of fresh plant: 15 g
Pythium ultimum [4]; [13]
  Number of sound peas after 3 weeks: 22
  Root evaluation (1-4): 4
  Weight of fresh plant: 24 g
Pythium ultimum [4]; [14]
  Number of sound peas after 3 weeks: 22
  Root evaluation (1-4): 2
  Weight of fresh plant: 17 g
Pythium ultimum [4]; [15]
  Number of sound peas after 3 weeks: 24
  Root evaluation (1-4): 4
  Weight of fresh plant: 16 g
[5]; 50 mg active ingredient per liter of soil
  Number of attacked plants after 3 weeks: 0
[5]; 100 mg active ingredient per liter of soil
  Number of attacked plants after 3 weeks: 0
Damping-off Fungi
  Sound plants in %: 100%
  Weight of fresh plant: 23 g
Asperqilus niger
  diameter of the colonies: 0 mm
Botrytis cinerea
  diameter of the colonies: 0 mm
[6]
  diameter of the colonies: 0 mm
Helminthosporium sativum
  diameter of the colonies: 0 mm
Stemphylium ilicis
  diameter of the colonies: 0 mm
Meloidogyne incognita; 40 mg per liter of soil
  Nematocidal action in % (reduction of attack): 90%
Meloidogyne incognita; 60 mg per liter of soil
  Nematocidal action in % (reduction of attack): 94%
Pyrenochaeta lycopersici; [16]
  Tomatoes per plant, relative to 0 g: 159%
  Weight of single tomato, relative to 0 g: 110%
  Yield per plant, relative to 0 g: 171%
Pyrenochaeta lycopersici; [17]
  Tomatoes per plant, relative to 0 g: 165%
  Weight of single tomato, relative to 0 g: 130%
  Yield per plant, relative to 0 g: 213%
